Data set [1] concerns H3. The data set is described as follows: Western blot of acetyl-H3 and phospho-H3 in U-937 cells. In kind it is cell-based. Conditions: higher concentrations, 18 h. How it is done: (§1) Whole-cell lysates were prepared by washing the cells with PBS and resuspending them in 1 ml of lysis buffer (1× phosphate-buffered saline, 1 mM EDTA, 1.5 mg/ml of iodoacetamide, 100 μM sodium orthovanadate, 0.5% Triton X-100, 20 mM β-glycerolphosphate, 0.2 mM phenylmethylsulfonyl fluoride, and 1× complete protease inhibitor cocktail). After clarification by a 15-min centrifugation in a microcentrifuge at 4° C., the resulting supernatant was collected. 20-50 μg of protein extracts were separated on a 10% SDS-polyacrylamide gel and transferred to a nitrocellulose membrane. The membrane was blocked with 5% nonfat milk followed by incubation with antibodies. The immunocomplex was visualized by chemiluminescence.

The subject of data set [2] is NB4 cells. The data set is described as follows: Apoptosis by Annexin V binding (flow cytometry) in NB4 cells. Conditions: MAA 5 mM alone, NB4 cells, 3 days. In kind it is cell-based. How it is done:
(§2) NB4 cells were provided by Dr. Ronald Evans (Salk Institute, La Jolla, Calif.). NB4-R4 cells were provided by Dr. Wilson Miller (McGill University, Montreal, Canada). HL-60, U-937, and Kasumi-1 cells were obtained from the American Type Culture Collection (Rockville, Md.). NB4 and NB4-R4 cells were grown in RPMI medium 1640 containing 10% fetal bovine serum. U-937 cells were grown in RPMI medium 1640 containing 10 mM HEPES, 1 mM sodium pyruvate, 4.5 g/L glucose, and 10% fetal bovine serum. HL-60 cells were grown in Iscove's Modified Dulbecco's medium containing 20% fetal bovine serum. Kasumi-1 cells were grown in RPMI medium 1640 containing 10 mM HEPES, 1 mM sodium pyruvate, 4.5 g/L glucose, and 20% fetal bovine serum.
(§3) To determine the percentage of cells that undergo apoptosis, after incubation with APC-CD11c antibody in the dark at 4° C., cells were washed twice with PBS and incubated at room temperature for 15 min with PE-conjugated Annexin-V (BD Pharmingen) and 7-AAD in binding buffer (10 mM HEPES, pH 7.4, 140 mM NaCI, 2.5 mM CaCl2) and analyzed by FACScan for CD11c expression and Annexin V binding. Apoptotic cells are those that stained positive for Annexin V and negative for 7-AAD.
Background: In flow cytometry, cells or beads pass a laser one at a time.

Data set [3] relates to HL-60 cells. The data set is described as follows: CD11c expression by flow cytometry in HL-60 cells. The class given is cell-based. To be noted: 48 h. Here is the method:
as §2
(§4) To determine the percentage of cells that express differentiation markers, cells were washed once and resuspended in RPMI medium 1640 containing 3% fetal bovine serum. Phycoerythrin (PE)-conjugated CD11b, 5 Allophycocyanin (APC)-CD11c or control antibodies (BD Pharmingen, San Diego, Calif.) were added into cell suspension. After 30 minutes of incubation in the dark at 4° C., the cells were washed twice and resuspended in RPMI medium 1640 containing 7-amino actinomycin D (AAD) (for dead cell exclusion) and analyzed by FACScan (Becton Dickinson).

Data set [4] deals with Kasumi-1 cells. The data set is described as follows: CD11c expression by flow cytometry in Kasumi-1 cells. The class given is cell-based. To be noted: 3 days. Here is the method: as §2, §4
In data set [5] the test system is ERK1/2. Description: Western blot of phospho-ERK1/2 in NB4 cells. The class given is cell-based. Conditions: 24 h. How it is done: as §1
A general note: Immunoblotting shows a protein as a band on a membrane.

Data set [6] has as its system ERK1/2. The data set is described as follows: Western blot of phospho-ERK1/2 in U-937 cells. The class given is cell-based. Conditions: higher concentrations, 18 h, total ERK1/2 unaffected. Here is the method: as §1
The conditions of data set [7]: in rats; cited from earlier work.
For data set [8], the system named is H3. Description: Western blot of phospho-H3 (Ser-10) in NB4 cells. The class given is cell-based. To be noted: NB4 cells, 24 h. Here is the method: as §1
The conditions of data set [9]: in non-human primates; cited from earlier work.
The test system of data set [10] is C/EBPβ. The data set is described as follows: Western blot of phospho-C/EBPβ (Thr-235) and C/EBPβ in NB4 cells. The class given is cell-based. Here is the method: as §1
For data set [11] the following is noted: in human; cited from earlier work.
For data set [12] the following is noted: cited from earlier work.
Data set [13] deals with U-937 cells. The data set is described as follows: CD11c expression by flow cytometry in U-937 cells. The class given is cell-based. To be noted: lower concentrations, 3 days. Here is the method: as §2, §4
Data set [14] has as its target T1, PML-RARα (Homo sapiens, UniProt P10276+P29590).
T1 construct: PML portion (fusion partner, UniProt P29590); endogenous in cells; host or cells: NB4 cells
T1 sequence (P29590+P10276 with tags, fused parts or gaps): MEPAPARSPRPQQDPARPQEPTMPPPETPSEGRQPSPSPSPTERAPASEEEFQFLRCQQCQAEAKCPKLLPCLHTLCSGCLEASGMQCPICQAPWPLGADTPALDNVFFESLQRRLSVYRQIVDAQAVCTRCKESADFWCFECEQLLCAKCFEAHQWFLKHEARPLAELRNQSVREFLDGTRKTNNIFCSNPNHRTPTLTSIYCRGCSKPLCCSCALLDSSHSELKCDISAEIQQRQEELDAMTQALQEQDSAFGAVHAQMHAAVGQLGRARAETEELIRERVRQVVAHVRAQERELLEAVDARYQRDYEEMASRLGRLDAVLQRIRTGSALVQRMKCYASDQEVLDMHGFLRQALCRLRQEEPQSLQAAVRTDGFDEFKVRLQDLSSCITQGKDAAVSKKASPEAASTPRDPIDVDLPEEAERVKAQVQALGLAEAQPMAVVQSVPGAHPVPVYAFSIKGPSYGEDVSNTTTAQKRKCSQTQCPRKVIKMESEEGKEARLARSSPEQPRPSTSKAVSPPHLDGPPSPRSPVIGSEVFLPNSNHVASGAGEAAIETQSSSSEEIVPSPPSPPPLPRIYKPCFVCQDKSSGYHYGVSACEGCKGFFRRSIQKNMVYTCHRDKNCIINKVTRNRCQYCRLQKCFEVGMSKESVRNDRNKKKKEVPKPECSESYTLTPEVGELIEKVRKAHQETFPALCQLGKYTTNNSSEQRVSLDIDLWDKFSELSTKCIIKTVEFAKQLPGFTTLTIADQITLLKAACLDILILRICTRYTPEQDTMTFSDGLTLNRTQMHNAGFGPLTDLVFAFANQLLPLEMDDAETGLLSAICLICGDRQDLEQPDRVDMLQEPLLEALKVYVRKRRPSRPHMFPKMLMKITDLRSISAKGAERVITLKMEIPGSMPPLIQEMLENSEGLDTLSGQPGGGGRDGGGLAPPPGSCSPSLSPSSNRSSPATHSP
The data set is described as follows: Western blot of PML-RARα and RARα in NB4 cells. In kind it is cell-based. To be noted: 3 days. Here is the method:
as §1

The test system of data set [15] is histones H3 and H4. The data set is described as follows: Western blot of acetylated histones H3 and H4 in NB4 cells. The class given is cell-based. Here is the method:
as §1

Data set [16] deals with RARE-TK-Luc reporter. The data set is described as follows: RARE-TK-Luc reporter transient transfection in NB4 cells. In kind it is cell-based. Conditions: MAA 5 mM, 19 h. Here is the method: Electroporation was performed using a Gene Pulser (BioRad, Hercules, Calif.) apparatus at 300 V and 960 μF capacity. […] Cells were harvested 19 h after transfection/treatment for luciferase and β-galactosidase activities.

Data set [17] relates to U-937 cells. The data set is described as follows: Annexin V binding in U-937 cells. The class given is cell-based. To be noted: higher concentrations, 3 days. Here is the method:
as §2, §3

Data set [18] concerns NB4 cells. Description: Differentiation markers CD11c/CD11b by flow cytometry in NB4 cells. The class given is cell-based. How it is done: as §2, §4
For data set [19] the following is noted: cited from earlier work. This is another data set of the same source.
For data set [20] the following is noted: industrial solvent of which MAA is a metabolite; cited from earlier work.

Read-outs that look alike come from different tables or passages of the source.

As for `COCC(=O)O` [MAA, methoxyacetic acid], the “H3 acetylation and phosphorylation” value in data set [1] is given as “increase”. Besides, the “apoptosis (Annexin V)” value in [2] is listed as “does not induce significant amount of apoptosis”; in data set [17], “inducing apoptosis”. Also, the “differentiation as evidenced by expression of CD11c” value in data set [3] is recorded as “induce differentiation”. Besides, the “percentage of cells expressing CD11c” value in data set [4] was “increased”; in [18] (NB4 cells, 24 h, from 32%), 41%. The “levels of phosphorylated ERK” value in data set [5] (higher concentrations (no differentiating effects), total ERK not decreased) is reported as “dramatically decreased”. The “constitutive levels of phosphorylated ERK” value in [5] (lower concentrations) is “did not change”. The “activity of ERK1/2 (phospho-ERK1/2)” value in [6] is recorded as “downregulate”. Also, the elimination half-life is 13 to 18 h in data set [7], 20 h in data set [9] and 77.1 h in data set [11]. Moreover, the figures for the “H3 phosphorylation (Ser-10)” value in data set [8] (higher concentrations) and in data set [8] (lower concentrations) were “dramatically increased” and “without effect”, respectively. Moreover, the “level of phosphorylated C/EBPβ at Thr-235” value in data set [10] (17 h) was “dose-dependent increase”. For the same compound, the “phosphorylation of C/EBPβ at Thr-235” value in data set [10] (lower concentrations, 24 h) was “maximal phosphorylation”. In addition, the half-life in vivo entry in [12] (Shih et al 2001) is given as “long”. Also, the “expression of the differentiation marker CD11c” value in data set [13] is “increasing expression”. Further, the “degradation of RARα and accumulation of ΔPML-RARα” value in data set [14] is reported as “not observed”. Moreover, the “expression level of PML-RARα fusion protein” value in data set [14] is “no effect”. The “HDACI potency relative to BA” value in [15] (as shown in the applicant's study (histone acetylation)) is reported as “less potent HDACI than BA”. Moreover, the “H3 or H4 acetylation” value in [15] (concentrations optimal for differentiation, NB4 cells, 24 h) is reported as “no significant increase”. For the same compound, in data set [15] (concentrations required for apoptosis, NB4 cells, 24 h), the “H3 and H4 acetylation” value was “robust acetylation”. In addition, the “transcription of RARE-containing reporter gene (RARE-TK-Luc)” value in data set [16] is “does not activate”. Further, the “percentage of cells expressing CD11c induced by ATO” value in [18] (MAA 1 mM added to ATO 0.1 to 1 μM, NB4 cells, 3 days) is “significantly increases”. The “percentage of cells expressing CD11b” value in [18] (MAA 1 mM alone, NB4 cells, 24 h, from 26%) came out at 51%. Also, in data set [18] (MAA 5 mM alone, NB4 cells, 3 days), the “expression of CD11c and CD11b” value is on record as “can induce expression”. Also, the “NB4 cell differentiation (CD11c)” value in data set [18] (MAA 5 mM, 21 h) is recorded as “can induce NB4 cell differentiation”. Also, the “percentage of NB4 cells expressing the myeloid differentiation markers CD11c and CD11b” value in [18] (NB4 cells, 3 days) is “comparable to ATRA”. Further, in data set [18] (NB4 cells, FIG. 10), the NB4 differentiation entry is “potent inducers”.
With `CC(/C=C/C(=O)NO)=C\[C@@H](C)C(=O)c1ccc(N(C)C)cc1` [TSA, trichostatin A], the “activity in vivo (anti-tumor)” value in data set [19] is on record as “does not exhibit significant activity”. Besides, in data set [12] (in vivo), the metabolism result was “rapidly metabolized”.
For the compound `COCCO` [ethylene glycol monomethyl ether], the developmental toxicity entry in data set [20] is on record as “developmental toxicant”.

The values above are taken from patent US20070134349A1, “Methods of treating hematological malignancies” (DUKE UNIVERSITY, priority 2005, published 2007).
